This is an account of results in article PMC11611271, “Rapid prediction of key residues for foldability by machine learning model enables the design of highly functional libraries with hyperstable constrained peptide scaffolds” (PLOS Computational Biology, 2024).

Where a SMILES comes first, the peptide text is derived from it. Bridges are numbered along the chain shown (N, C = ends). Where no end group is shown, it is not given here.

Experiment [1] deals with HtrA1. Kind of experiment: phage spot ELISA on HtrA1. It counts as binding. As to conditions: Fig 9A; for ELISA s/n: Spot ELISA signal/noise; for ELISA signal: Spot ELISA. An excerpt: To determine the performance of the libraries for ligand discovery we chose a panel of eight protein targets, which have no structural homology and a wide mass range (Fig 7C). We screened these eight targets with solution panning strategy and two additional plate panning for CD8α/β and CD28, thus ten panning campaigns in total. We consider clones showing spot phage ELISA signal > 0.3 and signal/noise ratio > 2 as positive hits. […] We also obtained the NGS data for these screening and the ranking of clones for their enrichment along the rounds of screening was analyzed and considered the top-ranking clones as potential hits. Based on their sequence diversity we selected 16 potential hits spanning five protein targets for peptide synthesis in their linear form. Seven of these are hits with positive phage ELISA signal and nine were selected based on NGS ranking without spot ELISA available. Subsequently, we conducted in vitro folding experiments on these peptides in various buffers.
(§1) The 5ji4 libraries were constructed following the Kunkel mutagenesis method and the solution panning protocol was followed as previously described. After four to five rounds of binding selection, while eluted pool was subjected to NGS analysis, individual phage clones were also picked and analyzed with phage spot ELISA. Positive clones were subjected to SANGER sequencing.
Among these five hits, A7, which is the SANGER hit, was picked for affinity maturation. Following the same strategy, one soft- and one hard-randomization library was designed targeting the 5JI4 variable regions 1 and 2, respectively. Two libraries were each panned as previously described. Both phage spot ELISA coupled with SANGER sequencing and NGS analysis were applied after affinity maturation.
On the technique in general: ELISA stands for enzyme-linked immunosorbent assay.

For experiment [2], the target named is T1, human full-length HtrA1 (Homo sapiens, UniProt Q92743).
T1 construct: we used human full-length HtrA1 (HtrA1), which was expressed in Trichoplusia ni cells; made in house; host or cells: Trichoplusia ni cells
T1 sequence (Q92743 23-480): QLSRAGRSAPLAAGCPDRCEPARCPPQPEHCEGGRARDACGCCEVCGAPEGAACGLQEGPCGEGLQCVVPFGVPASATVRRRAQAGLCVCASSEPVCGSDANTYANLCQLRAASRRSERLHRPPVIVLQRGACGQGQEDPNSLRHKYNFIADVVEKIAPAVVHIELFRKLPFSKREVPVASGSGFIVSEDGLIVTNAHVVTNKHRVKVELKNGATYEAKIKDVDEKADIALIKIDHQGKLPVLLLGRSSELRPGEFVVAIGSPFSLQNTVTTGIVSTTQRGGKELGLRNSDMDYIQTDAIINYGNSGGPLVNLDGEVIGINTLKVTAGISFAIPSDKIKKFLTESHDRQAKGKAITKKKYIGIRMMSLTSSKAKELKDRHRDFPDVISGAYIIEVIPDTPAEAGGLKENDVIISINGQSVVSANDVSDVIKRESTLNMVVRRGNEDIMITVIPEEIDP
Kind of experiment: HtrA1 enzymatic assay. It is filed as biochemical. The protocol: For enzymatic assays we used human full-length HtrA1 (HtrA1), which was expressed in Trichoplusia ni cells and purified as described. Enzyme assays with the fluorescence-quenched synthetic substrate Mca-[…](Dnp)KK (H2-OPT) were carried out essentially as described. […] A 10 mM stock solution of H2-OPT in DMSO was diluted with water, prewarmed at 37°C and then added to the HCP-enzyme mixtures. The final concentrations in the reaction mixtures were: 1 nM HtrA1, 5 μM H2-OPT, 0.1% DMSO and varied concentrations of HCP. Substrate cleavage was measured at 37°C on a SPECTRAmax M5 microplate reader (Molecular Devices) and the initial rates of cleavage determined. The IC50 values were determined by fitting the data to the 4 parameter sigmoid function.

Experiment [3] addresses T2, CD8α-Fc (Homo sapiens, UniProt P01732).
T2 construct: purchased R&D AVI10927
Kind of experiment: SPR binding to CD8α-Fc. The following applies: folded synthetic peptide; Biacore S200, 25°C, HBS-EP w. 5% DMSO, single-cycle kinetics; kinetic fitting (values not marked *); N.B. = no binding. On the procedure: (§2) Peptide synthesis was done by CSBio (Menlo Park, CA). The linear peptides were synthesized as free N- and C- terminus. For the small-scale in vitro folding test, linear peptides were dissolved in 100% DMSO as 10 mg/ml stock, then 1/20 diluted into folding buffers. Five different buffer conditions were tested: [1] 0.1 M NH4HCO3 pH 9.0, 2 mM reduced glutathione, 0.5 mM oxidized glutathione, and 9% DMSO; [2] 0.1 M NH4HCO3 pH 8.0, 1 mM reduced glutathione, and 55% DMSO; [3] dI-water w. 5% DMSO; [4] 1X PBS pH 7.4 w. 10% DMSO; and [5] 1X PBS pH 7.4 w. 50% DMSO. Refolding was promoted by incubation at R.T. with gentle rotation and monitored by LC-MS for disulfide bond formation. […] Therefore, buffer condition was used as a universal refolding buffer for all HCP peptides. After refolding, peptides with three disulfide bonds were purified by HPLC according to standard procedure and subjected to SPR measurements.
(§3) All binding experiments were performed using a Biacore S200 instrument (GE Healthcare) at 25°C at a flow rate of 30 μl/min in HBS-EP buffer (Cytiva, #BR100188) w. 5% DMSO. The kinetics and affinity measurements were carried out using single-cycle kinetics (SCK) and referenced by subtracting the signal from the blank flow cell. […]
Background: Surface plasmon resonance follows binding to a sensor surface in real time, without labels.

For experiment [4], the target named is T3, Fz7CRD-Fc (Homo sapiens, UniProt O75084).
T3 construct: Fz7CRD-Fc (R&D, #6178-FZ-50); purchased R&D 6178-FZ-50
Kind of experiment: SPR binding to Fz7CRD-Fc. The following applies: folded synthetic peptide; Biacore S200, 25°C, HBS-EP w. 5% DMSO, single-cycle kinetics; kinetic fitting (values not marked *); N.B. = no binding.

The target of experiment [5] is CD28-Fc (Homo sapiens, UniProt P10747). Kind of experiment: SPR binding to CD28-Fc. The following applies: folded synthetic peptide; Biacore S200, 25°C, HBS-EP w. 5% DMSO, single-cycle kinetics; kinetic fitting (values not marked *); N.B. = no binding. On the set-up: purchased R&D 342-CD-200. On the procedure: as §2, §3
CD28-Fc, sequence (P10747 19-152 limits assumed): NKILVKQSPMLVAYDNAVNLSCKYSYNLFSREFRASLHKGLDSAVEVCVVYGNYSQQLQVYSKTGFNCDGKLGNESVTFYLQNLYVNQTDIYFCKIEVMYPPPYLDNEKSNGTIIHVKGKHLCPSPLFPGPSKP
In experiment [6] the test system is CD28. Kind of experiment: phage spot ELISA on CD28. It is filed as binding.
Text: (§4) To determine the performance of the libraries for ligand discovery we chose a panel of eight protein targets, which have no structural homology and a wide mass range (Fig 7C). We screened these eight targets with solution panning strategy and two additional plate panning for CD8α/β and CD28, thus ten panning campaigns in total. We consider clones showing spot phage ELISA signal > 0.3 and signal/noise ratio > 2 as positive hits. At least one binding hit was discovered for nine out of the ten panning campaigns, surpassing the success rate of the best DCP scaffolds reported previously. We also obtained the NGS data for these screening and the ranking of clones for their enrichment along the rounds of screening was analyzed and considered the top-ranking clones as potential hits. Based on their sequence diversity we selected 16 potential hits spanning five protein targets for peptide synthesis in their linear form. Seven of these are hits with positive phage ELISA signal and nine were selected based on NGS ranking without spot ELISA available. Subsequently, we conducted in vitro folding experiments on these peptides in various buffers. We observed a strong propensity for spontaneous folding regardless of the buffer condition. All HCP hits tested successfully folded into three-disulfide-containing product within two days in a universal buffer system (PBS, pH 7.4, 50% DMSO) without the need for a redox pair, as shown in Fig 8A. The binding of these folded peptides to their respective target proteins was confirmed using SPR (Table 4 and S1 Data) and binding kinetics are exemplified by the high-affinity peptide 5ji4-CRD7-2 (see Fig 8B). Among seven selected ELISA-positive hits, all of them were successfully synthesized and in vitro folded with three disulfide bonds and five were proven to be validated binders by SPR (Table 4). Nine peptides selected from the NGS ranking were synthesized and folded with the expected number of disulfide bonds and five of them bound to their target with affinities in the μM range as determined by SPR (Table 4). In general, binding affinities for these SPR-validated initial hits are weak, with Kd values in the micromolar range and fast on- and off-rates. There are two exceptions with binding affinities in the nanomolar range.
as §1

Experiment [7] relates to CD8α. Kind of experiment: phage spot ELISA on CD8α. It counts as binding.
Text: as §4, §1

Experiment [8] concerns the target T4, HtrA1^PD-S/A (human, UniProt Q92743 161-379, S328A).
T4 construct: serine protease HtrA1, D161-K379 with S328A; source: E. coli, produced in-house (Genentech)
Kind of experiment: SPR; Biacore S200, HtrA1^PD-S/A on Series S Sensor Chip SA, peptide flowed, 25°C, 30 μl/min, HBS-EP with 5% DMSO; fit model not told for these values. As to conditions: both partners purified.

Experiment [9] has as its target T5, RSP02-Fc (UniProt Q6UXX9 22-243).
T5 construct: bought as Fc fusion; captured on a Protein A sensor chip by its Fc; source: bought: Biolegend, #786206
Kind of experiment: SPR; Biacore S200, Fc-fusion target on Sensor Chip Protein A, peptide flowed, single-cycle kinetics, three-fold dilution series from approximately 100 μM, 25°C, 30 μl/min, HBS-EP with 5% DMSO; 1:1 binding (kinetic) model, or no binding seen. As to conditions: both partners purified.

Experiment [10] addresses VEGF_(8-109) (UniProt P15692). Kind of experiment: SPR; Biacore S200, target on Series S Sensor Chip SA, peptide flowed, single-cycle kinetics, three-fold dilution series from approximately 100 μM, 25°C, 30 μl/min, HBS-EP with 5% DMSO; steady-state equilibrium model.
In experiment [11] the target is human full-length HtrA1 (human, UniProt Q92743 23-480). Kind of experiment: cell-based or functional assay.
human full-length HtrA1 (human, UniProt Q92743 23-480), sequence (Q92743 23-480): as the sequence (Q92743 23-480) above
The mark [12] stands for this setting: phage spot ELISA of the clone, positive hit: signal > 0.3 and signal/noise > 2.
Setting [13] is: phage spot ELISA signal/noise ratio.

T2 sequence (P01732 22-182 limits assumed): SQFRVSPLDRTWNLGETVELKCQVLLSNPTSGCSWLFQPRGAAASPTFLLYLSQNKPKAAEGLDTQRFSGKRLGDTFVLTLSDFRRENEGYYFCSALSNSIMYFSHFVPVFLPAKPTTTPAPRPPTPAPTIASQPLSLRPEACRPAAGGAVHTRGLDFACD
T5 sequence (Q6UXX9 22-243): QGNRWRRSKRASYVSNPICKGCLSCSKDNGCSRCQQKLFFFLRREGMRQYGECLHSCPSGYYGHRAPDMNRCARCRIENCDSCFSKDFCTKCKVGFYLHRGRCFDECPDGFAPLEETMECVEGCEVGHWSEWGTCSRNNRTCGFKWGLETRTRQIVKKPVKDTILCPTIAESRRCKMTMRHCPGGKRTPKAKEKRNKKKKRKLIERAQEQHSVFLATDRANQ
T4 sequence (Q92743 161-379 S328A): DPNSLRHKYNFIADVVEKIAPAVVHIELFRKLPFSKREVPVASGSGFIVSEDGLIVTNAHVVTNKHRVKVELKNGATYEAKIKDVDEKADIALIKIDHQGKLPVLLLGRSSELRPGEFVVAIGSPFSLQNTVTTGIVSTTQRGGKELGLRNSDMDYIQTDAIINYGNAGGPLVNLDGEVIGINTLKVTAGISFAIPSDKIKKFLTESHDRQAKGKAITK

In [1], `CC[C@H](C)[C@@H]1NC(=O)[C@H]([C@@H](C)O)NC(=O)[C@@H]2CSSC[C@H](NC(=O)[C@H](CCC(=O)O)NC(=O)[C@H](C)NC(=O)[C@H](CO)NC(=O)[C@H](CO)NC(=O)[C@H]([C@@H](C)O)NC(=O)[C@H](CC(C)C)NC(=O)[C@H](Cc3ccccc3)NC(=O)[C@H](Cc3c[nH]cn3)NC(=O)[C@H](Cc3c[nH]c4ccccc34)NC(=O)CNC(=O)[C@H](CCCNC(=N)N)NC(=O)[C@H](CC(C)C)NC1=O)C(=O)N[C@@H](CCC(=O)O)C(=O)N[C@@H](CCCNC(=N)N)C(=O)N[C@@H](CC(C)C)C(=O)N[C@H]1CSSC[C@H](NC(=O)[C@H]([C@@H](C)O)NC(=O)[C@H](CCCNC(=N)N)NC(=O)[C@H](CC(C)C)NC(=O)CNC(=O)[C@H](CC(C)C)NC(=O)[C@H](CCCNC(=N)N)NC(=O)[C@H](CC(=O)O)NC1=O)C(=O)N[C@@H](CCCNC(=N)N)C(=O)N[C@@H](C(C)C)C(=O)N[C@@H](Cc1c[nH]cn1)C(=O)N[C@H](C(=O)NCC(=O)O)CSSC[C@H](NC(=O)[C@@H]1CCCN1)C(=O)N[C@@H](CCC(=O)O)C(=O)N2` [5ji4_A7] (H-PCECTILRGWHFLTSSAECERLCDRLGLRTCRVHCG-OH; disulfide 2-35, 4-19, 23-31) returned an ELISA s/n of 5.8 and an ELISA signal of 3.36. Further, the “inhibition of HtrA1 activity” value in experiment [2] (maximal inhibition in the concentration-response) is on record as “complete inhibition”. For the molecule “P C E C LVTPYKDDYKSSEE C ERL C RKLGVTN C RVH C G (bicyclic or more) [5ji4-CD8-8, 5JI4 library hit for CD8α, synthesized and folded in vitro]”, in experiment [3], the “SPR Kd” value was “N.B”. Consider “P C E C PIRPYGVPVKSSEE C ERL C MNDWATT C RVH C G (bicyclic or more) [5ji4-CRD7-5, 5JI4 library hit for CRD7, synthesized and folded in vitro]”, for which the “SPR Kd” value in experiment [4] is reported as “N.B”. For “P C E C DVNGETYTVSSSEG C ERL C SWDQGKW C RVH C G (bicyclic or more) [5ji4-CD28-7, 5JI4 library hit for CD28, synthesized and folded in vitro]”, the “SPR Kd” value in experiment [5] is listed as “N.B”. The ELISA signal in experiment [6] (setting [12]) came out at 0.25. Also, the ELISA s/n in [6] (setting [13]) worked out at 3.48. In the case of “P C D C DVNGETYTVSSSEE C EPL C LNWLSSL C RVH C G (bicyclic or more) [5ji4-CD8-16, 5JI4 library hit for CD8α, synthesized and folded in vitro]”, the ELISA signal in [7] (setting [12]) was 3.43. The ELISA s/n in experiment [7] (setting [13]) is recorded as 37.34. For the same molecule, the “SPR Kd” value in [3] is given as “N.B”. Take “P C E C EDTTFFIIFNSSEE C ERL C RKLGVTN C RVH C G (bicyclic or more) [5ji4-CD28-4, 5JI4 library hit for CD28, synthesized and folded in vitro]”: the “SPR Kd” value in experiment [5] is on record as “N.B”.

In [1], “PCECDVNGETYTVSSSEECERLCRKLGVTNCRVHCG (also: bicyclic or more (positions not given here)) [5ji4, reference compound]” displayed an ELISA s/n of 1.4 and an ELISA signal of 0.83. In addition, the IC50 result in experiment [2] (1 nM HtrA1, 5 μM H2-OPT substrate, 0.1% DMSO, 15 min pre-incubation, 37°C, pH 8.0, 4 parameter fit) was “not inhibitory”.

B1: 5ji4-A7 (peptide)
chain: H-PCECTILRGWHFLTSSAECERLCRKLGVTNCRVHCG-OH
modifications: disulfide (positions not given here); also: three disulfide bonds, pairing not given here
With B1, the Kd (usually a measure of binding affinity in units of concentration) in experiment [8] came to 2.72 µM.

B2: 5ji4-RSP-1 (peptide)
chain: PCECDVNGETYTVSSSEECEPLCWMYNEHFCRVHCG
notes: hit from the 5JI4 scaffold phage libraries; free N- and C-termini; three disulfide bonds; source: synthetic peptide (CSBio), folded in vitro, HPLC purified
As for B2, the affinity in experiment [9], expressed as Kd, was 22 ± 17 µM. Regarding PCECFMYDILVGLASSEECKRLCWGFGQSDCRVHCG [5ji4-VEGF-5], in experiment [10], the Kd was 86 µM. With PCECTILRGWHFLTSSAECERLCRKLGVTNCRVHCG, the “inhibition of HtrA1 enzyme activity (cleavage of the fluorescence-quenched substrate H2-OPT), IC50” value in experiment [11] worked out at 38 µM.
